Data: patent US20080255127A1, “Pesticide Formulations with a Crystallization Risk, and a Method for Their Preparation” (priority 2005, published 2008)

Assay: Risk of crystallization of pesticides in ECs and EWs
Format: physicochemical
Conditions: conventional recipes; EW with less than 10% of water
Source text: This is what happened in the case of both EP655197 and EP453899, where the compositions for which the disclosed anticrystallization agents (N,N-dialkylamides) cover the whole range of triazoles with a fungicidal action, without giving examples of all of the compositions in which it is appropriate to use N,N-dimethylalkylamides. […] Propioconazole is an example.
The inventors have established that it is not the similarly of the chemical structure that puts the pesticide “at risk” of crystallization in ECs and EWs, but instead it is much more sensible to evaluate certain experimental parameters (or parameters that are calculated semi-empirically) in order to predict the risk of crystallization. In numerous tests, the inventors have found some pesticides with a risk of crystallization and others without. This risk refers in concrete terms to what happens when 5 ml of the EC or EW is diluted with 95 ml of water and kept in a refrigerator (at 1° C.), after which the emulsion is passed through a 5-μm filter 7 days later.

Row | Compound | Crystallization problems in an emulsifiable concentrate (EC) or emulsion in water (EW)
1 | Propioconazole | free of crystallization problems

Assay: Crystallization test of EW formulations Dn (25-μm metal filter)
Format: physicochemical
Design: key to Crystallization: −: A minus sign indicates the absence of crystals; +: a plus sign indicates their presence
Conditions: 5.0% pesticide in formulation Dn
Experimental: In the crystallization test, an emulsion consisting of 2% of the formulation in 98 ml of water was kept at 1° C. for 24 h and was then passed through a 25-μm metal filter. A minus sign indicates the absence of crystals, while a plus sign indicates their presence. […] The worst emulsion, which however was still acceptable, scored +, a good emulsion scored ++ and the best ones scored +++. Both the phase separation and the time of its occurrence were observed when evaluating the emulsion. […] A single + sign means that some oil did separate out after 2 hours.

Row | Compound | Crystallization problems (in words)
2 | CC1CCCCC1NC(=O)Nc1ccccc1 (centres unmarked) [siduron] | had crystallization problems
3 | CCOC(=O)CSc1nc(C(C)(C)C)nn1C(=O)N(C)C [triazamate] | had crystallization problems

Same assay, conditions: 5.0% pesticide in formulation Dn; 2% of the formulation in 98 ml of water, 1° C. for 24 h, 25-μm metal filter

Row | Compound | Crystallization
4 | CCC1(CC2(c3cccc(Cl)c3)CO2)C(=O)c2ccccc2C1=O (centres unmarked) [indanofan] | −
5 | CC(C)(C)C(O)(CCc1ccc(Cl)cc1)Cn1cncn1 (centres unmarked) [tebuconazole] | −
6 | COc1ccc(C(=CC(=O)N2CCOCC2)c2ccc(Cl)cc2)cc1OC [dimethomorph] | −
7 | CC1CCCCC1NC(=O)Nc1ccccc1 (centres unmarked) [siduron] | +
8 | OC(c1ccc(F)cc1)(c1cncnc1)c1ccccc1Cl (centres unmarked) [nuarimol] | −
9 | O=C(O)C1(C(=O)Nc2ccc(Cl)cc2Cl)CC1 [cyclanilide] | −
10 | CON(C)C(=O)Nc1ccc(Cl)c(Cl)c1 [linuron] | −
11 | CC(C)(C)C(O)C(Cc1ccc(Cl)cc1)n1cncn1 (centres unmarked) [paclobutrazole] | −
12 | CCOc1ccccc1OS(=O)(=O)NC(=O)Nc1nc(OC)cc(OC)n1 [ethoxysulfuron] | −
13 | CC(C)(C)N(NC(=O)c1ccc(Cl)cc1)C(=O)c1ccccc1 [halofenozide] | −
14 | CCOC(=O)C1=NN(c2ccc(Cl)cc2Cl)C(C)(C(=O)OCC)C1 (centres unmarked) [mefenpyr-diethyl] | −
15 | CC1COC(Cn2cncn2)(c2ccc(Oc3ccc(Cl)cc3)cc2Cl)O1 (centres unmarked) [difenconazole] | −
16 | C=CCOC(Cn1ccnc1)c1ccc(Cl)cc1Cl (centres unmarked) [imazalil] | −
17 | COP(=S)(OC)SCn1nnc2ccccc2c1=O [azinphos-methyl] | −
18 | CCNc1nc(Cl)nc(NC(C)C)n1 [atrazine] | −
19 | CC1(C)CCC(Cc2ccc(Cl)cc2)C1(O)Cn1cncn1 (centres unmarked) [metconazole] | −
20 | CC(C1CC1)C(O)(Cn1cncn1)c1ccc(Cl)cc1 (centres unmarked) [cyproconazole] | −
21 | C/C(=N/Nc1nc(C)cc(C)n1)c1ccccc1C [ferimzone] | −
22 | CC(C)(C)C(=O)C(Oc1ccc(Cl)cc1)n1cncn1 (centres unmarked) [triadimefon] | −
23 | O=c1oc2ccccc2c(O)c1C(CC(O)c1ccc(-c2ccc(Br)cc2)cc1)c1ccccc1 (centres unmarked) [bromadiolone] | −
24 | CC(C)(C)C(O)C(Oc1ccc(Cl)cc1)n1cncn1 (centres unmarked) [triadimenol] | −

Row | Compound | Crystallization
25 | Cc1cc(Cl)ccc1OCC(=O)O [MCPA] | −
26 | CNC(=O)Oc1cc(C)c(SC)c(C)c1 [methiocarb] | −
27 | C[Si](Cn1cncn1)(c1ccc(F)cc1)c1ccc(F)cc1 [flusilazole] | −
28 | OC(Cc1ccccc1Cl)(Cn1nc[nH]c1=S)C1(Cl)CC1 (centres unmarked) [prothioconazole] | −
29 | Cc1ccc(C(C)NC(=O)[C@@H](NC(=O)OC(C)C)C(C)C)cc1 (some centres unmarked) [iprovalicarb] | −
30 | O=c1oc2ccccc2c(O)c1C1CCCc2ccccc21 (centres unmarked) [coumatetralyl] | +
31 | CCOC(=O)CSc1nc(C(C)(C)C)nn1C(=O)N(C)C [triazamate] | +
32 | O=C(O)COc1ccc(Cl)cc1Cl [2,4-D] | −
33 | CCNc1nc(NCC)nc(SC)n1 [simetryn] | −
34 | C=CCOC(=O)C(C)(C)OC(=O)c1cc(-n2c(=O)cc(C(F)(F)F)n(C)c2=O)ccc1Cl [butafenacil] | −
35 | COC(=O)C(C)N(C(=O)c1ccco1)c1c(C)cccc1C (centres unmarked) [furalaxyl] | −
36 | Cc1ccc(NC(=O)N(C)C)cc1Cl [chlorotoluron] | −
37 | CCOP(=S)(OCC)Oc1ccc(=O)n(-c2ccccc2)n1 [pyridaphenthion] | −
38 | CC(C)c1ccc(NC(=O)N(C)C)cc1 [isoproturon] | −
39 | CN(C)C(=O)Nc1ccc(Cl)c(Cl)c1 [diuron] | −
40 | Clc1ccc(C2(Cn3cncn3)CC(Br)CO2)c(Cl)c1 (centres unmarked) [bromuconazole] | −
41 | CC1(C(=O)Nc2ccc(O)c(Cl)c2Cl)CCCCC1 [fenhexamid] | −
42 | CCC(=O)Nc1ccc(Cl)c(Cl)c1 [propanil] | −
43 | c1coc(-c2nc3ccccc3[nH]2)c1 [fuberidazole] | −
44 | CS(=O)(=O)NC(=O)c1cc(Oc2ccc(C(F)(F)F)cc2Cl)ccc1[N+](=O)[O-] [fomesafen] | −
